Consider 2 molecules from article PMC4650734, “FV-162 is a novel, orally bioavailable, irreversible proteasome inhibitor with improved pharmacokinetics displaying preclinical efficacy with continuous daily dosing” (Cell Death & Disease, 2015).

Series [1] relates to 10 human myeloma cell lines. Description: MTS cell growth and viability assay. Format: cell-based. The following applies: 72 h. The method, then: Human multiple myeloma cell lines 8226, H929, JJN3, KMH11, KMS11, KMS18, LP1, MM.1 S, OPM2, and U266 were grown in Iscove's modified Dulbecco's medium (IMDM). Cell lines were authenticated with short tandem repeat method in September 2011. In addition, cell lines were continually monitored by morphological inspection. Primary mononuclear cells were isolated from peripheral blood or bone marrow samples from multiple myeloma patients at the Princess Margaret Cancer Centre (Toronto, ON, Canada) by Ficoll density gradient centrifugation and cultured in IMDM. All cell culture media were obtained from the Ontario Cancer Institute Tissue Culture Media Facility (Toronto, ON, Canada) and were supplemented with 10% fetal calf serum, 100 μg/ml penicillin, and 100 μg/ml streptomycin (Hyclone, Logan, UT, USA). […]
Cellular viability was primarily assessed by MTS assay according to the manufacturer's instructions (Promega, Madison, WI, USA). […] Cell viability was independently confirmed by reading the optical density at 490 nm and by exclusion of trypan blue stain (Invitrogen, Burlington, ON, Canada). Viability of primary mononuclear cells was determined by Annexin V–fluorescein isothiocyanate and propidium iodide co-staining (Biovision Research Products, Mountain View, CA, USA) using flow cytometry according to the manufacturer's instructions after 48 h of treatment with inhibitors or vehicle control.

The next series concerns C-L subunit activity. The series can be described thus: C-L proteasome activity in RBCs of treated mice. Format: in vivo, mouse. The following applies: FV-162 30 mg/ml as printed in Figure 5e legend.
Series [2] has as its system CD138- normal hematopoietic cells. Description: Annexin V flow cytometry viability of primary bone marrow mononuclear cells, normal fraction. It is filed as cell-based, human. The following applies: 48 h; for sensitivity of CD138- normal hematopoietic cells: concentrations ⩽0.1 μM for FV-162, similar concentrations for ONX-0912. Here is the method:
Human multiple myeloma cell lines 8226, H929, JJN3, KMH11, KMS11, KMS18, LP1, MM.1 S, OPM2, and U266 were grown in Iscove's modified Dulbecco's medium (IMDM). Cell lines were authenticated with short tandem repeat method in September 2011. In addition, cell lines were continually monitored by morphological inspection. Primary mononuclear cells were isolated from peripheral blood or bone marrow samples from multiple myeloma patients at the Princess Margaret Cancer Centre (Toronto, ON, Canada) by Ficoll density gradient centrifugation and cultured in IMDM. All cell culture media were obtained from the Ontario Cancer Institute Tissue Culture Media Facility (Toronto, ON, Canada) and were supplemented with 10% fetal calf serum, 100 μg/ml penicillin, and 100 μg/ml streptomycin (Hyclone, Logan, UT, USA). […] Cellular viability was primarily assessed by MTS assay according to the manufacturer's instructions (Promega, Madison, WI, USA). Ten thousand cells per well were seeded in triplicate in tissue culture-treated 96-well plates. Two hours after seeding, cells were treated with proteasome inhibitors for 72 h (0.01–10 μM) or DMSO vehicle control. Cell viability was independently confirmed by reading the optical density at 490 nm and by exclusion of trypan blue stain (Invitrogen, Burlington, ON, Canada). Viability of primary mononuclear cells was determined by Annexin V–fluorescein isothiocyanate and propidium iodide co-staining (Biovision Research Products, Mountain View, CA, USA) using flow cytometry according to the manufacturer's instructions after 48 h of treatment with inhibitors or vehicle control.
(In general: Flow cytometry measures light scatter and fluorescence of single cells or particles in a stream.)

The test system of another series is T-L subunit activity. Description: T-L proteasome activity in RBCs of treated mice. Format: in vivo, mouse. The following applies: FV-162 30 mg/ml as printed in Figure 5e legend.
The subject of the next series is NOD/SCID mice. Description: Dose tolerance studies / MTD in mice. The following applies: 30 mg/kg daily by oral gavage, up to 8 days, NOD/SCID mice. The method, then: NOD/SCID mice were administered FV-162 (30 mg/kg daily, 7 days/week) in a 5% DMSO, 20% Cremophor vehicle by oral gavage or ONX-0912 (30 mg/kg daily, 7 days/week) in a 5% DMSO, 20% Cremophor vehicle by oral gavage for a week. Mice were monitored for changes in body weight, behavior, and physical appearance.

Series [3] can be described thus: Pharmacokinetic study in NOD/SCID mice. The following applies: plasma, mouse; for bioavailability: 25 mg/kg p.o. vs 5 mg/kg i.v. It is filed as in vivo. The method, then:
NOD/SCID mice were administered FV-162 or ONX-0912 at doses of 5 mg/kg intravenously or 25 mg/kg by oral gavage in a 12.5% ethanol, 12.5% Tween-80 vehicle (3 mice per group). Venous blood samples (20–50 μl) were collected at 5, 15, 30 min, and 1, 2, and 4 h postdose. Plasma was separated from whole blood by centrifugation and stored at −20 °C until analysis. […] Venous blood samples (20–50 μl) were collected at 5, 10, 30, and 60 min postdose. Plasma was separated from whole blood by centrifugation and stored at −20 °C until analysis. The Cmax, its associated time (Tmax), the terminal half-life (t1/2), area under the plasma concentration–time curve (AUC), clearance (CL), and volume of distribution (Vd) were evaluated using Pheonix WinNonlin 6.2.1 (Princeton, NJ, USA), and relative oral bioavailability (F%) values were calculated as follows: F%=AUCoral gavage/AUCintravenous × 100.

The test system of another series is patients. The following applies: cited from earlier work.

Where only a bound is given, the exact number is not on record here.

For `Cc1ncc(C(=O)N[C@@H](COC(F)F)C(=O)N[C@@H](COC(F)F)C(=O)N[C@@H](Cc2ccccc2)C(=O)[C@@]2(C)CO2)s1` [FV-162], the “cell growth and viability (MTS)” value in series [1] (all 10 human myeloma cell lines) is “decreased cell growth and viability”. In addition, the “potency in MTS assay relative to ONX-0912” value in series [1] (in 5 of the 10 cell lines) is on record as “over two times more potent than ONX-0912”. Also, in the series on C-L subunit activity, the “inhibition of C-L subunit activity in murine RBCs” value is given as “did not inhibit”. Moreover, the “CD138- cells to which compound was toxic” value in series [2] (0.5 μM) came to 50%. For the same molecule, the “sensitivity of CD138- normal hematopoietic cells” value in series [2] is given as “largely insensitive”. In addition, the “inhibition of T-L subunit activity in murine RBCs” value in the series with T-L subunit activity was “did not inhibit”. The “toxicity, behavior and body weight on daily dosing” value with NOD/SCID mice is “no evidence of toxicity, behavioral change, or loss of body weight”. Also, in series [3] (iv, 5 mg/kg i.v.), the AUC (in general, the area under the concentration-time curve, a measure of exposure) was 111 ng·h/mL; the peak level (Cmax) was 268 ng/mL; the Tmax (usually the time from dosing to the highest level) is 5 min; the Vd – broadly, a proportionality between amount in the body and measured concentration, not a real space – is 96 L/kg. Also, in series [3] (iv, 5 mg/kg i.v.), the clearance (commonly the volume of plasma or blood freed of the substance per unit of time) turned out to be 702 mL/min/kg and the half-life (in general, the time in which the quantity being followed falls by half) amounted to 95 min. Moreover, in series [3] (po, 25 mg/kg p.o.), the AUC was 51.9 ng·h/mL, the peak level (Cmax) was 21 ng/mL and the Tmax was 60 min. Also, the bioavailability (usually the share of a dose that reaches the circulation, judged against a reference dose that is usually intravenous) in series [3] (po) is 10%.
Take `COC[C@H](NC(=O)c1cnc(C)s1)C(=O)N[C@@H](COC)C(=O)N[C@@H](Cc1ccccc1)C(=O)[C@@]1(C)CO1` [ONX-0912, reference compound]: in the series on patients (administered twice daily), the “MTD (not reached at cumulative doses up to)” value was greater than 190 mg/day. Also, in the series on patients (once-daily oral, patients with advanced refractory or recurrent solid tumors), the MTD is given as 150 mg/day. For the same molecule, the “sensitivity of CD138- normal hematopoietic cells” value in series [2] is “no adverse effects”. Further, in series [3] (iv, 5 mg/kg i.v.), the AUC is 54.1 ng·h/mL; the maximum concentration (Cmax) (in general, the peak of the concentration-time curve) was 187 ng/mL; the Tmax is 5 min; the Vd was found to be 48 L/kg. In series [3] (iv, 5 mg/kg i.v.), this molecule came in with a clearance of 1490 mL/min/kg and a half-life of 22 min. In addition, in series [3] (po, 25 mg/kg p.o.), the AUC was 8.55 ng·h/mL, the peak level (Cmax) was 38 ng/mL and the Tmax is 5 min. This molecule returned a bioavailability in series [3] (po) of 3%.
